Data taken from patent US10821115B2, “Compounds that inhibit Mcl-1 protein” (priority 2017, dated 2020).
Like-named read-outs stand apart in the source and are kept apart here.

Experiments:
[1] = tested on: human multiple myeloma cell line, OPM-2; test: Cell viability assay (OPM-2 10 FBS), CellTiter-Glo; format: cell-based
In short: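 Cells were seeded at 3000 cells/well in RPMI 1640 with 10% FBS and exposed to serially diluted compounds for 16 h at 37 °C, 5% CO2.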

[2] = target: recombinant human Mcl-1 (residues 171-327) / Bim interaction (Homo sapiens (Human), UniProt Q07820); test: biochemical; format: binding
[3] = TR-FRET, Mcl-1(171-327) / biotin-Bim (51-76), read-out: Mcl-1 HTRF IC50
[4] = Homo sapiens, OPM-2, 16 h, read-out: OPM-2 10% FBS IC50 IP, OPM-2 cells, 10% FBS, 16 h, CellTiter-Glo

recombinant human Mcl-1 (residues 171-327) / Bim interaction, sequence (Q07820 171-327): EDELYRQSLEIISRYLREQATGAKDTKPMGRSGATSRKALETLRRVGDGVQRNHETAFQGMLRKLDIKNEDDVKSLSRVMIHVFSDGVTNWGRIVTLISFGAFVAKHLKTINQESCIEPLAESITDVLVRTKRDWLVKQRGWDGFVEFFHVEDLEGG

SMILES | IC50 [2, 3] [nM] | IC50 [1, 4] [nM] | also measured
CCO[C@]1(CN2CCN3CCOC[C@@H]3C2)CCC[C@H](C)[C@@H](CCOC)S(=O)(=O)NC(=O)c2ccc3c(c2)N(C[C@@H]2CC[C@H]21)C[C@@]1(CCCc2cc(Cl)ccc21)CO3 [Example 518, (1S,3′R,6′R,7′R,11′S,12′R)-6-chloro-7′-ethoxy-7′-((9aS)-hexahydropyrazino[2,1-c][1,4]oxazin-8(1H)-ylmethyl)-12′-(2-methoxyethyl)-11′-methyl-3,4-dihydro-2H,15′H-spiro[naphthalene-1,22′-[20]oxa[13]thia[1,14]diazatetracyclo[14.7.2.0˜3,6˜.0˜19,24˜]pentacosa[16,18,24]trien]-15′-one 13′,13′-dioxide] |  |  | IC50 ([1]; Homo sapiens, OPM-2, 16 h, read-out: OPM-2 10% FBS IC50 IP, OPM-2 cells, 10% FBS, 16 h incubation): 224 nM; IC50 ([2]; 0.1 nM Mcl-1(171-327), 0.05 nM biotin-Bim (51-76), read-out: Mcl-1 HTRF IC50): 0.164 nM
CO[C@@]1(CC(=O)N(C)C)/C=C/C[C@H](C)[C@@H](C)S(=O)(=O)NC(=O)c2ccc3c(c2)N(C[C@@H]2CC[C@H]21)C[C@@]1(CCCc2cc(Cl)ccc21)CO3 [Example 100002, 2-((1 S,3′R,6′R,7′S,8′E,11′S, 12′R)-6-chloro-7′-methoxy-11′,12′-dimethyl-13′,13′-dioxido-15′-oxo-3,4-dihydro-2H-spiro[naphthalene-1,22′-[20]oxa[13]thia[1,14]diazatetracyclo[14.7.2.0-3,6˜.0˜19,24˜]pentacosa[8,16,18,24]tetraen]-7′-yl)-N,N-dimethylacetamide] | 0.071 |  | IC50 ([1]; read-out: OPM-2 10% FBS IC50 IP, OPM-2 cells, 10% FBS, 16 h, CellTiter-Glo): 41 nM
COCCN(C)C(=O)C[C@]1(OC)/C=C/C[C@H](C)[C@@H](C)S(=O)(=O)NC(=O)c2ccc3c(c2)N(C[C@@H]2CC[C@H]21)C[C@@]1(CCCc2cc(Cl)ccc21)CO3 [Example 100005, 2-((1 S,3′R,6′R,7′S,8′E,11′S, 12′R)-6-chloro-7′-methoxy-11′,12′-dimethyl-13′,13′-dioxido-15′-oxo-3,4-dihydro-2H-spiro[naphthalene-1,22′-[20]oxa[13]thia[1,14]diazatetracyclo[14.7.2.0-3,6˜.0˜19,24˜]pentacosa[8,16,18,24]tetraen]-7′-yl)-N-(2-methoxyethyl)-N-methylacetamide] | 0.091 | 62 | 
CO[C@@]1(CC(=O)N2CCC2)/C=C/C[C@H](C)[C@@H](C)S(=O)(=O)NC(=O)c2ccc3c(c2)N(C[C@@H]2CC[C@H]21)C[C@@]1(CCCc2cc(Cl)ccc21)CO3 [Example 100006, (1 S,3′R,6′R,7′S,8′E,11′S,12′R)-7′-(2-(1-azetidinyl)-2-oxoethyl)-6-chloro-7′-methoxy-1′,12′-dimethyl-3,4-dihydro-2H, 15′H-spiro[naphthalene-1,22′-[20]oxa[13]thia[1,14]diazatetracyclo[14.7.2.0-3,6˜.0˜19,24˜]pentacosa[8,16,18,24]tetraen]-15′-one 13′,13′-dioxide] | 0.081 | 131 | 
C[C@@H]1[C@@H](C)C/C=C/[C@](C)(OCCN2CCOCC2)[C@@H]2CC[C@H]2CN2C[C@@]3(CCCc4cc(Cl)ccc43)COc3ccc(cc32)C(=O)NS1(=O)=O [Example 100007, (1 S,3′R,6′R,7′S,8′E,11′S, 12′R)-6-chloro-7′,11′,12′-trimethyl-7′-(2-(4-morpholinyl)ethoxy)-3,4-dihydro-2H, 15′H-spiro[naphthalene-1,22′-[20]oxa[13]thia[1,14]diazatetracyclo[14.7.2.0-3,6˜.0˜19,24˜]pentacosa[8,16,18,24]tetraen]-15′-one 13′,13′-dioxide] | 0.367 | 142 | 
CO[C@@]1(CC(=O)N(C)C(C)(C)C)/C=C/C[C@H](C)[C@@H](C)S(=O)(=O)NC(=O)c2ccc3c(c2)N(C[C@@H]2CC[C@H]21)C[C@@]1(CCCc2cc(Cl)ccc21)CO3 [Example 100008, 2-((1 S,3′R,6′R,7′S,8′E,11′S, 12′R)-6-chloro-7′-methoxy-11′,12′-dimethyl-13′,13′-dioxido-15′-oxo-3,4-dihydro-2H-spiro[naphthalene-1,22′-[20]oxa[13]thia[1,14]diazatetracyclo[14.7.2.0-3,6˜.0˜19,24˜]pentacosa[8,16,18,24]tetraen]-7′-yl)-N-methyl-N-(2-methyl-2-propanyl)acetamide] | 0.17 | 541 | 
CNC(=O)C[C@]1(OC)/C=C/C[C@H](C)[C@@H](C)S(=O)(=O)NC(=O)c2ccc3c(c2)N(C[C@@H]2CC[C@H]21)C[C@@]1(CCCc2cc(Cl)ccc21)CO3 [Example 100009, 2-((1 S,3′R,6′R,7′S,8′E,11′S, 12′R)-6-chloro-7′-methoxy-11′,12′-dimethyl-13′,13′-dioxido-15′-oxo-3,4-dihydro-2H-spiro[naphthalene-1,22′-[20]oxa[13]thia[1,14]diazatetracyclo[14.7.2.0-3,6˜.0˜19,24˜]pentacosa[8,16,18,24]tetraen]-7′-yl)-N-methylacetamide] | 0.128 | 216 | 
CO[C@@]1(CC(=O)N2CCCC2)/C=C/C[C@H](C)[C@@H](C)S(=O)(=O)NC(=O)c2ccc3c(c2)N(C[C@@H]2CC[C@H]21)C[C@@]1(CCCc2cc(Cl)ccc21)CO3 [Example 100010, (1 S,3′R,6′R,7′S,8′E,11′S, 12′R)-6-chloro-7′-methoxy-11′,12′-dimethyl-7′-(2-oxo-2-(1-pyrrolidinyl)ethyl)-3,4-dihydro-2H, 15′H-spiro[naphthalene-1,22′-[20]oxa[13]thia[1,14]diazatetracyclo[14.7.2.0-3,6˜.0˜19,24˜]pentacosa[8,16,18,24]tetraen]-15′-one 13′,13′-dioxide] | 0.077 | 142 | 
CO[C@@]1(C#CCCN2CCN3CCOC[C@@H]3C2)/C=C/C[C@H](C)[C@@H](C)S(=O)(=O)NC(=O)c2ccc3c(c2)N(C[C@@H]2CC[C@H]21)C[C@@]1(CCCc2cc(Cl)ccc21)CO3 [Example 100011, (1 S,3′R,6′R,7′S,8′E,11′S, 12′R)-6-chloro-7′-(4-((9aS)-hexahydropyrazino[2,1-c][1,4]oxazin-8(1H)-yl)-1-butyn-1-yl)-7′-methoxy-11′,12′-dimethyl-3,4-dihydro-2H,15′H-spiro[naphthalene-1,22′-[20]oxa[13]thia[1,14]diazatetracyclo[14.7.2.0-3,6˜.0˜19,24˜]pentacosa[8,16,18,24]tetraen]-15′-one 13′,13′-dioxide] | 0.153 | 134 | 
CO[C@@]1(C)/C=C/C[C@H](C)[C@@H](C)S(=O)(=O)NC(=O)c2ccc3c(c2)N(C[C@@H]2CC[C@H]21)C[C@@]1(CCCc2cc(Cl)ccc21)CO3 [Example 100014, (1S,3′R,6′R,7′S,8′E, 11′S, 12′R)-6-chloro-7′-methoxy-7′,11′,12′-trimethyl-3,4-dihydro-2H,15′H-spiro[naphthalene-1,22′-[20]oxa[13]thia[1,14]diazatetracyclo[14.7.2.0-3,6˜.0˜19,24˜]pentacosa[8,16,18,24]tetraen]-15′-one 13′,13′-dioxide] |  | 330 | IC50 ([2]; read-out: Mcl-1 HTRF IC50): 0.228 nM
C[C@@H]1[C@@H](C)C/C=C/[C@](C)(O)[C@@H]2CC[C@H]2CN2C[C@@]3(CCCc4cc(Cl)ccc43)COc3ccc(cc32)C(=O)NS1(=O)=O [Example 100016, (1S,3′R,6′R,7′S,8′E,11′S, 12′R)-6-chloro-7′-hydroxy-7′,11′,12′-trimethyl-3,4-dihydro-2H,15′H-spiro[naphthalene-1,22′-[20]oxa[13]thia[1,14]diazatetracyclo[14.7.2.0-3,6˜.0˜19,24˜]pentacosa[8,16,18,24]tetraen]-15′-one 13′,13′-dioxide] |  | 132 | IC50 ([2]; Mcl-1 HTRF IC50): 0.182 nM
